Experimental findings from patent US4228124A, “Fumigating method and apparatus” (priority 1979, dated 1980) are described below.

This data set in a line: effective fugacity rate on heating with hot air current from ring heater and fan (FIG. 1 apparatus). In kind it is physicochemical. Particulars: Table 5, Comparative Example 1: without blowing agent. Here is the method:
This invention will be described below in greater detail with reference to examples, in which the effective fugacity rates of active ingredients are determined by volatilizing the ingredient within a closed container, passing the air within the container through a solvent which completely dissolves the active ingredients, such as benzene, acetone, water, chloroform or dichloromethane to cause the solvent to absorb the vaporized ingredient in the air, concentrating the solvent and subjecting the concentrate to gas chromatography. The fugacity rate is expressed in terms of the ratio in percent of the quantity of the vaporized active ingredient to the quantity of the ingredient initially admixed with a blowing agent.
Each of the specimen mixtures of insecticide and blowing agent listed in Table 2 is placed in an inner case 8 (60 cm^3 in capacity) fitted in an apparatus (15 cm in diameter and 15 cm in height) provided in its passage 2 with the same ring heater 6 as shown in FIG. 1.
The ring heater 6 (power 400 W) and a fan 4 (with 4 blades) are energized to produce a hot air current. The fan 4 is driven at 3000 r.p.m. The mixture is heated for about 5 minutes (up to a temperature of about 300° C.) with the hot air current to thermally decompose the blowing agent and diffuse the vapor of the insecticide. […]

The molecule `CC(C)=CC1C(C(=O)OCc2coc(Cc3ccccc3)c2)C1(C)C` (stereo not shown) [Specimen 27] showed an effective fugacity rate of 0.4%.
